Molecular target: Sortase A (SrtA) (Staphylococcus aureus, UniProt Q2FV99)
Assay: intrinsic fluorescence quenching with purified recombinant SrtA (KA); also FRET inhibition of purified SrtA, IC50 =[…], reversible
Type: binding

Sequence of Sortase A (SrtA) (Q2FV99 whole entry): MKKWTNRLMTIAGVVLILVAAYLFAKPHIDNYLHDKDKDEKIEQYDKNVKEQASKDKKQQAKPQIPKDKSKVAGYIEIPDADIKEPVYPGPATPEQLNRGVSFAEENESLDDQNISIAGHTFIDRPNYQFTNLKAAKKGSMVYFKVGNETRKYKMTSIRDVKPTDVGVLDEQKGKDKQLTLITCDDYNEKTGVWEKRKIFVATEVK

Work on `O=c1cc(-c2ccc(O)cc2)oc2cc(O)c([C@@H]3O[C@H](CO)[C@@H](O)[C@H](O)[C@H]3O)c(O)c12` [isovitexin] yielded a Kd of 14 µM.
